Values of other authors, collected in patent publication US20260000626A1, “POLYMERIC NANOPARTICLES FOR LONG ACTING DELIVERY OF A PEPTIDE AND METHODS OF MAKING AND USING THEREOF” (Brown University, priority 2022, published 2026).

Columns and labels:
GLP-1 receptor [1] = biological target: T1, GLP-1 receptor (Homo sapiens, UniProt P43220); conditions: vs intact GLP-1
GLP-1 receptor [2] = biological target: T1, GLP-1 receptor; conditions: negligible agonistic activity

T1 sequence (P43220 24-463, species assumed): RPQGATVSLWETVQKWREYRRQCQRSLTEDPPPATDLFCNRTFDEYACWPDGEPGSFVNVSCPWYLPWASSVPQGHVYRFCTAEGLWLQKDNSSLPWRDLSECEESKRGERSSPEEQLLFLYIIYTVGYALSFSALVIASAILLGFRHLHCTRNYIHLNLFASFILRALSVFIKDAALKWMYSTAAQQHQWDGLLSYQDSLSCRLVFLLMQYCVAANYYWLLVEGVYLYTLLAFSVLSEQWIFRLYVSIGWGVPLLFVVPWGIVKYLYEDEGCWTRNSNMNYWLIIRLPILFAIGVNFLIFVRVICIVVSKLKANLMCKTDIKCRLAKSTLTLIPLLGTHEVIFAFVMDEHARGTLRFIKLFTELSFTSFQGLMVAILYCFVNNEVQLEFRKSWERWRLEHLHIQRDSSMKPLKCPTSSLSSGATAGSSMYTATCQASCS

lower binding affinity compared to the intact peptide (GLP-1 receptor [1]): 100 fold
decrease in agonistic activity (GLP-1 receptor [2]): > 10000 fold
Substance: GLP-1(9-36)-NH2
